# Data: ChEMBL document CHEMBL3785005, “Novel triazole hybrids of myrrhanone C, a natural polypodane triterpene: Synthesis, cytotoxic activity and cell based studies” (Eur J Med Chem, 2016)
# pIC50: −log10 of the molar value. The source made the active and inactive calls. No cut-off for these calls is given here.
# Columns and labels:
# A549 [1] = test: Induction of apoptosis in human A549 cells assessed as early apoptotic cells at 5 uM after 48 hrs by Annexin V-FITC/propidium iodide staining based flow cytometry (reference value: 5.19%); format: functional
# [2] = Cytotoxicity against human DU145 cells assessed as cell viability after 48 hrs by MTT assay; format: functional, cell-based; conditions: DU-145, 48 h
# A549 [3] = test: Cell cycle arrest in human A549 cells assessed as accumulation at G2/M phase at 10 uM after 48 hrs by propidium iodide staining based flow cytometry (reference value: 14.07%); format: functional
# MCF7 = test: Cytotoxicity against human MCF7 cells assessed as cell viability after 48 hrs by MTT assay; format: functional, cell-based; conditions: MCF7, 48 h
# A549 [4] = test: Cell cycle arrest in human A549 cells assessed as accumulation at S phase at 5 uM after 48 hrs by propidium iodide staining based flow cytometry (reference value: 3.51%); format: functional
# A549 [5] = test: Induction of apoptosis in human A549 cells assessed as mitochondrial membrane potential at 5 uM after 48 hrs by JC-1 staining based flow cytometry (reference value: 92.5%); format: functional
# A549 [6] = test: Cell cycle arrest in human A549 cells assessed as accumulation at G0/G1 phase at 5 uM after 48 hrs by propidium iodide staining based flow cytometry (reference value: 80.19%); format: functional
# A549 [7] = test: Cell cycle arrest in human A549 cells assessed as accumulation at G0/G1 phase at 10 uM after 48 hrs by propidium iodide staining based flow cytometry (reference value: 80.19%); format: functional
# A549 [8] = test: Induction of apoptosis in human A549 cells assessed as late apoptotic cells at 10 uM after 48 hrs by Annexin V-FITC/propidium iodide staining based flow cytometry (reference value: 5.19%); format: functional
# A549 [9] = test: Cell cycle arrest in human A549 cells assessed as accumulation at sub G1 phase at 10 uM after 48 hrs by propidium iodide staining based flow cytometry (reference value: 0.76%); format: functional
# A549 [10] = test: Induction of apoptosis in human A549 cells assessed as viable cells at 10 uM after 48 hrs by Annexin V-FITC/propidium iodide staining based flow cytometry (reference value: 87.93%); format: functional; conditions: A549, 48 h, read-out: Activity
# A549 [11] = test: Cell cycle arrest in human A549 cells assessed as accumulation at G2/M phase at 5 uM after 48 hrs by propidium iodide staining based flow cytometry (reference value: 14.07%); format: functional
# A549 [12] = test: Induction of apoptosis in human A549 cells assessed as viable cells at 5 uM after 48 hrs by Annexin V-FITC/propidium iodide staining based flow cytometry (reference value: 87.93%); format: functional; conditions: A549, 48 h, read-out: Activity
# A549 [13] = test: Induction of apoptosis in human A549 cells assessed as necrotic cells at 5 uM after 48 hrs by Annexin V-FITC/propidium iodide staining based flow cytometry (reference value: 1.68%); format: functional
# A549 [14] = test: Induction of apoptosis in human A549 cells assessed as late apoptotic cells at 5 uM after 48 hrs by Annexin V-FITC/propidium iodide staining based flow cytometry (reference value: 5.19%); format: functional
# HepG2 = test: Cytotoxicity against human HepG2 cells assessed as cell viability after 48 hrs by MTT assay; format: functional, cell-based; conditions: HepG2, 48 h
# A549 [15] = test: Induction of apoptosis in human A549 cells assessed as presence of apoptotic bodies at 5 to 10 uM after 48 hrs by Hoechst 33258 staining based fluorescence microscopic analysis; format: functional, cell-based
# A549 [16] = test: Cell cycle arrest in human A549 cells assessed as accumulation at sub G1 phase at 5 uM after 48 hrs by propidium iodide staining based flow cytometry (reference value: 0.76%); format: functional
# HeLa = test: Cytotoxicity against human HeLa cells assessed as cell viability after 48 hrs by MTT assay; format: functional, cell-based
# A549 [17] = test: Induction of apoptosis in human A549 cells assessed as cytoplasmic condensation at 5 to 10 uM after 48 hrs by Hoechst 33258 staining based fluorescence microscopic analysis; format: functional, cell-based
# A549 [18] = test: Induction of apoptosis in human A549 cells assessed as nuclear fragmentation at 5 to 10 uM after 48 hrs by Hoechst 33258 staining based fluorescence microscopic analysis; format: functional, cell-based
# A549 [19] = test: Induction of apoptosis in human A549 cells assessed as mitochondrial membrane potential at 10 uM after 48 hrs by JC-1 staining based flow cytometry (reference value: 92.5%); format: functional
# A549 [20] = test: Induction of apoptosis in human A549 cells assessed as necrotic cells at 10 uM after 48 hrs by Annexin V-FITC/propidium iodide staining based flow cytometry (reference value: 1.68%); format: functional
# A549 [21] = test: Cell cycle arrest in human A549 cells assessed as accumulation at S phase at 10 uM after 48 hrs by propidium iodide staining based flow cytometry (reference value: 3.51%); format: functional
# A549 [22] = test: Induction of apoptosis in human A549 cells assessed as early apoptotic cells at 10 uM after 48 hrs by Annexin V-FITC/propidium iodide staining based flow cytometry (reference value: 5.19%); format: functional
# A549 [23] = test: Cytotoxicity against human A549 cells assessed as cell viability after 48 hrs by MTT assay; format: functional, cell-based; conditions: A549, 48 h
SMILES,Activity (A549 [1]) [%],pIC50 [2],Activity (A549 [3]) [%],pIC50 (MCF7),Activity (A549 [4]) [%],Activity (A549 [5]) [%],Activity (A549 [6]) [%],Activity (A549 [7]) [%],Activity (A549 [8]) [%],Activity (A549 [9]) [%],viability at 10 µM (A549 [10]) [%],Activity (A549 [11]) [%],viability at 5 µM (A549 [12]) [%],Activity (A549 [13]) [%],Activity (A549 [14]) [%],pIC50 (HepG2),Activity (A549 [15]),Activity (A549 [16]) [%],pIC50 (HeLa),Activity (A549 [17]),further results
COc1cc(OC)c(-n2cc(CO/N=C3\CC[C@]4(C)[C@@H](CC/C=C(\C)CC/C=C(\C)CCC=C(C)C)[C@](C)(O)CC[C@H]4C3(C)C)nn2)c(OC)c1,4.18,4.95,31.32,4.83,3,88.7,76.47,65.77,15.83,1.14,77.4,18.52,86,1.3,8.56,4.85,Active,0.73,4.89,Active,Activity (A549 [18]): Active; Activity (A549 [19]): 84.1%; Activity (A549 [20]): 1.8%; Activity (A549 [21]): 0.36%; Activity (A549 [22]): 5%; pIC50 (A549 [23]): 5.09
CC(C)=CCC/C(C)=C/CC/C(C)=C/CC[C@@H]1[C@@]2(C)CC/C(=N\OCc3cn(-c4ccccc4)nn3)C(C)(C)[C@@H]2CC[C@@]1(C)O,5.23,5.05,36.97,5.02,2.86,88.1,75.14,60.11,16.28,1.02,76.9,20,84.4,0.81,9.59,5.02,Active,0.9,5.11,Active,Activity (A549 [18]): Active; Activity (A549 [19]): 83.5%; Activity (A549 [20]): 1.43%; Activity (A549 [21]): 0.34%; Activity (A549 [22]): 5.4%; pIC50 (A549 [23]): 5.21
